The results in this text go back to PubChem BioAssay (NCI).

Common to all, as to assay: NCI anticancer screen, dose series, 48 h
The subject of assay [1] is A498 renal.
In assay [2] the test system is HL-60(TB) leukemia.
Assay [3] relates to HOP-62 NSCLC.
Assay [4] relates to HOP-92 NSCLC.
For assay [5], the system named is HS 578T breast.
The subject of assay [6] is LOX IMVI melanoma.
Assay [7] deals with SR leukemia.
In assay [8] the test system is SW-620 colon.
The test system of assay [9] is U251 CNS.
Assay [10] has as its system UO-31 renal.

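Following 48 hours of exposure in 96-well plates, responses at five concentrations were used to interpolate endpoints linearly. Here, GI50 denotes the concentration required for 50% inhibition of growth. TGI denotes the concentration required for complete inhibition of growth.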 A value given as a limit tells only on which side of the number the result lay.

On to `COc1cc(/C=C\c2cc(OC)c(OC)c(OC)c2)cc(N/C=C\C(=O)c2ccc(OC(F)(F)F)cc2)c1OC`, for which the GI50 in assay [1] is 1830 nM; in [2] it was 2800 nM; in assay [3] it was 7.85 µM; in [4], 12.6 µM; in [5], 6.44 µM; in assay [6] it was 5950 nM. Also, the GI50 in assay [7] was 2750 nM; in assay [8] it was 4090 nM; in assay [9] it was 3.46 µM; in assay [10], 5.42 µM. Moreover, the TGI is 7.59 µM in [1]; 8.08 µM in [2]; more than 100 µM in assay [3]; more than 100 µM in assay [4]; more than 100 µM in [5]; more than 100 µM in assay [6]. Besides, the TGI in assay [7] is 41.1 µM; in assay [8], more than 100 µM; in assay [9] it was more than 100 µM; in [10], more than 100 µM.
`CC(C)(CN1CCCCC1)C(=O)/C=C/c1ccc(/C=C/C(=O)C(C)(C)CN2CCCCC2)cc1`: the TGI in [1] worked out at 3.08 µM; in [2], 0.714 µM; in assay [3] it was 2.19 µM; in assay [4] it was 1.58 µM; in assay [5] it was 3.2 µM; in assay [6], 0.856 µM. In addition, the TGI was determined as 0.646 µM in assay [7], 0.463 µM in assay [8], 1.18 µM in assay [9] and 2.54 µM in assay [10].
With `O=Nc1ccc(O)c(=O)cc1`, the GI50 in [1] was 4890 nM; in assay [2], 547 nM; in assay [3] it was 7.45 µM; in assay [4] it was 0.998 µM; in assay [5], 5.57 µM; in [6], 2160 nM. For the same compound, the GI50 in [7] is 954 nM; in assay [8] it was 657 nM; in [9], 3.08 µM; in assay [10] it was 1.15 µM. Moreover, the TGI in assay [1] was 28.6 µM; in assay [2] it was 2.59 µM; in [3], 23.2 µM; in assay [4] it was 3.39 µM; in [5], more than 44.4 µM; in assay [6], 7.67 µM. Also, the TGI came to 9.19 µM in assay [7], 2.35 µM in [8], 11.6 µM in assay [9] and 2.69 µM in assay [10].
`CS(=O)(=O)Nc1cncc(-c2ccc3ncnc(Nc4ccc(F)c(Cl)c4)c3c2)c1`: the GI50 was 570 nM in assay [1]; 2080 nM in assay [2]; 2.51 µM in assay [3]; 0.369 µM in [4]; 1.07 µM in [5]; 1730 nM in assay [6]. Further, the GI50 in assay [7] is 1780 nM; in assay [8], 3150 nM; in [9], 3.03 µM; in assay [10] it was 1.76 µM. Further, the TGI is 3.2 µM in [1]; 9.62 µM in [2]; 20.2 µM in assay [3]; 4.82 µM in assay [4]; 4.38 µM in assay [5]; 10.2 µM in assay [6]. The TGI came out at 10.2 µM in assay [7], 11.8 µM in assay [8], 15.2 µM in [9] and 13.8 µM in assay [10].
For the compound `CC(=O)Nc1ccc2c(c1)C(c1ccccc1Cl)=Nc1c(n[nH]c1C)N2`, the GI50 was 746 nM in [1]; 14800 nM in assay [2]; 5.74 µM in [3]; 1.41 µM in assay [4]; 0.928 µM in assay [5]; 2750 nM in [6]. Also, the GI50 was 1160 nM in assay [7], 1550 nM in assay [8], 1.1 µM in assay [9] and 5.63 µM in [10]. Further, the TGI in assay [1] is 6.99 µM; in assay [2], more than 25 µM; in assay [3] it was more than 25 µM; in [4], 16.4 µM; in assay [5], more than 11.7 µM; in assay [6], more than 25 µM. The TGI in [7] was more than 25 µM; in assay [8], more than 25 µM; in [9], more than 25 µM; in [10] it was more than 22.5 µM.
In the case of `COC[C@@H](N=C1NC(=O)/C(=C/c2ccc3ncccc3c2)S1)c1ccccc1`, the GI50 in assay [1] was 4250 nM; in assay [2] it was 6390 nM; in [3], 11.7 µM; in [4], 5.07 µM; in [5] it was 7.43 µM; in assay [6] it was 9730 nM. In addition, the GI50 in [7] is 3640 nM; in assay [8], 8910 nM; in assay [9] it was 4.32 µM; in assay [10], 6.7 µM. Further, the TGI in assay [1] is 12.5 µM; in assay [2], 19.2 µM; in [3], more than 25 µM; in assay [4], more than 21.1 µM; in [5] it was more than 23.2 µM; in assay [6] it was more than 25 µM. Besides, the TGI was 15.6 µM in assay [7], more than 25 µM in [8], more than 25 µM in [9] and more than 25 µM in assay [10].
Regarding `COc1ccc(/C=C(/C#N)C(N)=O)c(OC)c1`, the TGI in assay [1] was 25.7 µM; in assay [2], more than 100 µM; in [3], more than 100 µM; in assay [4] it was more than 100 µM; in assay [5], more than 100 µM; in [6], more than 100 µM. Also, the TGI in [7] is more than 100 µM; in [8], more than 100 µM; in assay [9] it was more than 100 µM; in assay [10], 26.8 µM.
`CCOC(=O)c1cc(C(=O)c2cc(OC)c(OC)c(OC)c2)n2ncccc12`: the GI50 in assay [1] is 46.6 nM; in [2], 251 nM; in [3] it was 0.63 µM; in [4], 48.5 µM; in assay [5], 0.309 µM; in [6] it was 2460 nM. The GI50 in [7] was 126 nM; in assay [8], 185 nM; in assay [9] it was 0.444 µM; in [10], 0.782 µM. Besides, the TGI in assay [1] was 0.742 µM; in [2], 0.763 µM; in assay [3], more than 75.6 µM; in [4], more than 100 µM; in [5] it was 26.1 µM; in [6] it was more than 100 µM. In addition, the TGI is more than 100 µM in [7], more than 100 µM in assay [8], 37.1 µM in [9] and more than 100 µM in [10].
